One assay has as its target T1, Epoxide hydrolase 1 (Homo sapiens, UniProt P07099).
T1 sequence (P07099 whole entry): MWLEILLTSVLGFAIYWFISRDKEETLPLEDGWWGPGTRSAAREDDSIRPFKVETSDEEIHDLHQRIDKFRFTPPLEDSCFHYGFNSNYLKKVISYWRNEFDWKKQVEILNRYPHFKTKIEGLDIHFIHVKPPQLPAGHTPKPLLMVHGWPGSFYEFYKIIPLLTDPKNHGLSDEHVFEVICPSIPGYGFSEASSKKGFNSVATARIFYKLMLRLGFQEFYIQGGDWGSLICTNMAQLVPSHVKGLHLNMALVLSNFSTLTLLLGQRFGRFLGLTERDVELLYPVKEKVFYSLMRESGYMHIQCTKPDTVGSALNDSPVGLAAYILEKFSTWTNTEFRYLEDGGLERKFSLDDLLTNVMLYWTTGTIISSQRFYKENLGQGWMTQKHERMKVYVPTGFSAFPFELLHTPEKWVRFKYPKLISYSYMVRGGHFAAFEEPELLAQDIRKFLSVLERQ
The assay can be described thus: Inhibition of human microsomal epoxide hydrolase.

For assay [1], the target named is T2, Bifunctional epoxide hydrolase 2 (Homo sapiens, UniProt P34913).
T2 sequence (P34913 whole entry): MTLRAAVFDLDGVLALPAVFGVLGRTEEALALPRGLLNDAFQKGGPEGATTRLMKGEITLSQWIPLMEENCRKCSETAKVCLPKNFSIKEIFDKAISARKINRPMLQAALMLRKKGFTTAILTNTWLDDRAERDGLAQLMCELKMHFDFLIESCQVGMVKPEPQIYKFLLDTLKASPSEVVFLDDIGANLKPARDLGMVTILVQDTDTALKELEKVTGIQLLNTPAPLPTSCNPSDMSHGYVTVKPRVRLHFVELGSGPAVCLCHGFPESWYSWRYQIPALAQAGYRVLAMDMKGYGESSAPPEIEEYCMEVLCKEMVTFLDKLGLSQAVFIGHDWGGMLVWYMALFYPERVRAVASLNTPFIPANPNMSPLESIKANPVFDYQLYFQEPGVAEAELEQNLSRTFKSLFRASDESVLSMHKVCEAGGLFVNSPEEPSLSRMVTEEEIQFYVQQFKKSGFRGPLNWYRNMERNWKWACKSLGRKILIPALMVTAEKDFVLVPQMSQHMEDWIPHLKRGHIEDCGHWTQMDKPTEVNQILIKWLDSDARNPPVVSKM
The assay can be described thus: Inhibition of human soluble epoxide hydrolase.

Assay [2] has as its target T3, Bifunctional epoxide hydrolase 2 (Rattus norvegicus, UniProt P80299).
T3 sequence (P80299 whole entry): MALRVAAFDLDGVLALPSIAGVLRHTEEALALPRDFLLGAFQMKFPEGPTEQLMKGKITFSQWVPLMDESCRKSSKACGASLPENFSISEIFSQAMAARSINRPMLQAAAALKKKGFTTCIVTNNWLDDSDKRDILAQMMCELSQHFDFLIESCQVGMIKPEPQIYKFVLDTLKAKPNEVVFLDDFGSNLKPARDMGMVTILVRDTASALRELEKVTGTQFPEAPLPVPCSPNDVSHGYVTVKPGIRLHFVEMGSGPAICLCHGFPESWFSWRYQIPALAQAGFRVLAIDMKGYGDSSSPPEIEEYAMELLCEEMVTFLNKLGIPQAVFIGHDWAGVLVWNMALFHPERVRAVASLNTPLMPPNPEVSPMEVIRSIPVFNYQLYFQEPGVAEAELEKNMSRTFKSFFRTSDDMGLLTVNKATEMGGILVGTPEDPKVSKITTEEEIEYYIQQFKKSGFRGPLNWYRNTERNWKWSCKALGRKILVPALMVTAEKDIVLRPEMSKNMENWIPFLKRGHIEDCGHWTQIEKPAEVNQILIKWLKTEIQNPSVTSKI
The assay can be described thus: Inhibition of rat soluble epoxide hydrolase.

Another assay concerns the target Cytochrome P450 2C9 (Homo sapiens, UniProt P11712). The assay can be described thus: Inhibition of CYP2C9. The assay is classed as ADME.
For a further assay, the target named is Cytochrome P450 2D6 (Homo sapiens, UniProt P10635). The assay can be described thus: Inhibition of CYP2D6. The assay is classed as ADME.
For another assay, the target named is Cytochrome P450 3A4 (Homo sapiens, UniProt P08684). The assay can be described thus: Inhibition of CYP3A4. The assay is classed as ADME.
The nature of assay [3]: Binding affinity to […] channel diltiazem binding site.
Assay [4] in a line: Inhibition of potassium channel IKr.
For assay [5], the target named is Sodium channel protein type 5 subunit alpha (Homo sapiens, UniProt Q14524). The assay can be described thus: Inhibition of Voltage-gated sodium channel subunit alpha Nav1.5.
In assay [6] the target is T2, Bifunctional epoxide hydrolase 2. The assay can be described thus: Inhibition of human soluble epoxide hydrolase in HEK293 cells assessed as DHET production. The assay is classed as cell-based.
The target of assay [7] is Voltage-dependent L-type calcium channel subunit alpha-1C (Homo sapiens, UniProt Q13936). The assay can be described thus: Activity at Cav 1.2 channel.
Another assay deals with Blood. The assay can be described thus: Inhibition of DHET production in rat whole blood at 1 uM after 1 hr. The assay is classed as functional. Also noted: Activity: scale not given: the % may be the effect or the level left.

The structures appear in SMILES notation.

This is an account of results in ChEMBL document CHEMBL1137005 (Bioorg Med Chem Lett, 2009).

A word on the IC50: it is the concentration that gives 50% inhibition.

Sequence of Cytochrome P450 2C9 (P11712 whole entry): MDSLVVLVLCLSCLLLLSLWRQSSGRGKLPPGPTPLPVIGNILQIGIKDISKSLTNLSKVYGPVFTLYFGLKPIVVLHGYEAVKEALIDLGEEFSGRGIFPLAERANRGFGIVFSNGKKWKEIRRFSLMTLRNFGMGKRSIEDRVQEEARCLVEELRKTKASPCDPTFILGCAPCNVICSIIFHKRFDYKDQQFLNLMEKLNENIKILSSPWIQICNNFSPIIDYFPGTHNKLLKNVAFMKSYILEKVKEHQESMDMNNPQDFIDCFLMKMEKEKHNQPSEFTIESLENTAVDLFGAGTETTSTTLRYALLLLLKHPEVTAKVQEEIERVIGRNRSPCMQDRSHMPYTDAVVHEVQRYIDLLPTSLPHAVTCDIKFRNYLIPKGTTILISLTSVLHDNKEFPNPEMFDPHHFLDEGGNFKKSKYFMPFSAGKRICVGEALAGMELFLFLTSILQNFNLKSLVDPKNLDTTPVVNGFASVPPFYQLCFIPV
Sequence of Sodium channel protein type 5 subunit alpha (Q14524 whole entry): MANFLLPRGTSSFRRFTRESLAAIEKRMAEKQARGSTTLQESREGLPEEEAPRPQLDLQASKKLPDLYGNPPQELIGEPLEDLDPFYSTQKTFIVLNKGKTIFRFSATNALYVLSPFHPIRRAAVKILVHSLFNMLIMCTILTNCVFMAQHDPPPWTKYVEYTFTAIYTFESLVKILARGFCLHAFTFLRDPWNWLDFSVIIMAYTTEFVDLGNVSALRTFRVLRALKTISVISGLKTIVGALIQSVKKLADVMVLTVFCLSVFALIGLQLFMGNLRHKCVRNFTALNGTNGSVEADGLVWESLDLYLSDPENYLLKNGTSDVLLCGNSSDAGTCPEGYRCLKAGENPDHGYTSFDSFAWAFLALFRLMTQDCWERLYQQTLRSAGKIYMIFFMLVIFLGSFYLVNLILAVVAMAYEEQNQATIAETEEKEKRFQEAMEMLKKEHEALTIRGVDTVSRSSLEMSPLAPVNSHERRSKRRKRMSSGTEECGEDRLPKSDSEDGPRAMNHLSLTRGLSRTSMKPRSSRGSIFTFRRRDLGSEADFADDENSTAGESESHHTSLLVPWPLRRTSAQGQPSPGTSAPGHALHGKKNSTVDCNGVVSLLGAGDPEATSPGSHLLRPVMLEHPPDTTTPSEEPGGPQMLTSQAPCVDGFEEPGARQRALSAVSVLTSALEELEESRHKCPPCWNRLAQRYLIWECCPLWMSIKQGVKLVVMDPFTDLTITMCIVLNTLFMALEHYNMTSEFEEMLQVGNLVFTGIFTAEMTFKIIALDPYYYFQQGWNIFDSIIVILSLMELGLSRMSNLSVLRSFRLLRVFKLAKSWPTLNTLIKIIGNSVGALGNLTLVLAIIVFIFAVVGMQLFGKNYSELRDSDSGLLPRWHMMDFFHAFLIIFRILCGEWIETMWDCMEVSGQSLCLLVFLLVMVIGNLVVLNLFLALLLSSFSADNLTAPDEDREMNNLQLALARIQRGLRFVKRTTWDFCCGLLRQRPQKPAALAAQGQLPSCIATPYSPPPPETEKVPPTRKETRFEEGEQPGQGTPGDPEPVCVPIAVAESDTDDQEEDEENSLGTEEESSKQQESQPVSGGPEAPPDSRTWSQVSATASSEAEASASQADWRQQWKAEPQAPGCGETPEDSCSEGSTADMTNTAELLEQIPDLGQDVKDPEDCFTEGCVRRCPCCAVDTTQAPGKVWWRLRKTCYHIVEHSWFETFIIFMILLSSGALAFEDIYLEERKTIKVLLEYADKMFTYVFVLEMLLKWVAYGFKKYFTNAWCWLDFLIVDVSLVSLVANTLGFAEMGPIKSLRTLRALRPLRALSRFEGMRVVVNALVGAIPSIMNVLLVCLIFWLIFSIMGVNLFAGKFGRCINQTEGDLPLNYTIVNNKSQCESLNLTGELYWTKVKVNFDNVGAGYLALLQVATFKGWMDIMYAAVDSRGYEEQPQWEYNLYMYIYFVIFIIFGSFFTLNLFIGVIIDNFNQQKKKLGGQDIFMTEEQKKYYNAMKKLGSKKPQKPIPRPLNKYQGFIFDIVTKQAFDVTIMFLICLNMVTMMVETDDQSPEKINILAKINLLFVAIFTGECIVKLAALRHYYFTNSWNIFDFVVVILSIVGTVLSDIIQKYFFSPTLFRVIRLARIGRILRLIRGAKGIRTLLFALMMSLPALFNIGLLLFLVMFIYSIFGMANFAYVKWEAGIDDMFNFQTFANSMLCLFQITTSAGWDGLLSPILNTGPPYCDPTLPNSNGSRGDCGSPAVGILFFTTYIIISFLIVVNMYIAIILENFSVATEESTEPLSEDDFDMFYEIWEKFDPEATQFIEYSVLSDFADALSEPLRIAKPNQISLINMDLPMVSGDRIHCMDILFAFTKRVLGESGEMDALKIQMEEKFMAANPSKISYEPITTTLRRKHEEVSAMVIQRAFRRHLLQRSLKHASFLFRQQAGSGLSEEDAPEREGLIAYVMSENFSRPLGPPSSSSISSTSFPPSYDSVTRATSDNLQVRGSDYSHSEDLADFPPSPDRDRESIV
Sequence of Cytochrome P450 3A4 (P08684 whole entry): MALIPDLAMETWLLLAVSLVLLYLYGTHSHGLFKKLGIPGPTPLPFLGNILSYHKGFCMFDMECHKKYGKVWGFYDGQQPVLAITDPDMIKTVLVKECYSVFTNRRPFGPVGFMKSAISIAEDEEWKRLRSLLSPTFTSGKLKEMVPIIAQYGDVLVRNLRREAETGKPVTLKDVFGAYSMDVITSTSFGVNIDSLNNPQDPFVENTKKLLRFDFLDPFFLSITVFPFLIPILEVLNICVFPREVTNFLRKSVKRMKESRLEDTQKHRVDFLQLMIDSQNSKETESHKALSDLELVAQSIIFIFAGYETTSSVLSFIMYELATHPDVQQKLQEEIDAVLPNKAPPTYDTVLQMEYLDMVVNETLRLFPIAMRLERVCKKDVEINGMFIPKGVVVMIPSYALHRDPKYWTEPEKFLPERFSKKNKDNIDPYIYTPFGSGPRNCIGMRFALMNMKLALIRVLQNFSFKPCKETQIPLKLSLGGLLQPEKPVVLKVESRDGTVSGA
Sequence of Cytochrome P450 2D6 (P10635 whole entry): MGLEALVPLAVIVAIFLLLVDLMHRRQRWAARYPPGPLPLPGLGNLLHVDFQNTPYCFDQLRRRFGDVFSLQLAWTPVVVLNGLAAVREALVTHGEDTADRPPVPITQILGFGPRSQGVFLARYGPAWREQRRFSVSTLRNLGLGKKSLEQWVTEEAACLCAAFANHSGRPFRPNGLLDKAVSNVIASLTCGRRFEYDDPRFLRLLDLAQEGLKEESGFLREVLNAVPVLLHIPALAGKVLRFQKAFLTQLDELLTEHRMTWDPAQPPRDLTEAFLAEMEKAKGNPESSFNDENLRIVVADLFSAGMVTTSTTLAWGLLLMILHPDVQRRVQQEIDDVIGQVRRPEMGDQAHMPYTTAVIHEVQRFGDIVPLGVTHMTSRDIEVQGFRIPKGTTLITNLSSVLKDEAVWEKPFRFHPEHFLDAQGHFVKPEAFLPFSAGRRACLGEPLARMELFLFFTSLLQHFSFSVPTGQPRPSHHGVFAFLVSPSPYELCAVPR

For `O=C1CC2(CCN(C(=O)NC3CCc4ccccc4C3)CC2)Oc2ccccc21` (racemic), the IC50 at Epoxide hydrolase 1 is 26 µM; in [1], 0.005 µM; in [2], 0.039 µM; against Cytochrome P450 2C9 it was more than 10 µM; against Cytochrome P450 2D6 it was more than 10 µM; on Cytochrome P450 3A4 it was more than 10 µM. Besides, the IC50 turned out to be 9 µM in assay [3], 12 µM in assay [4] and 1 µM in assay [5].
Turning to `Cn1nccc1-c1ccc2c(c1)C(=O)CC1(CCN(C(=O)N[C@H]3C[C@@H]3c3ccccc3)CC1)O2` (racemic), the IC50 on Epoxide hydrolase 1 was 15 µM; in assay [1], 0.004 µM; in assay [2] it was 0.021 µM; in [6], less than 0.001 µM; against Cytochrome P450 2C9, more than 10 µM; at Cytochrome P450 2D6 it was more than 10 µM. For the same molecule, the IC50 against Cytochrome P450 3A4 was more than 10 µM; in assay [4] it was 4 µM; in assay [5], more than 10 µM; in [7] it was 28 µM.
`O=C1CC2(CCN(C(=O)N[C@H]3C[C@@H]3c3ccccc3)CC2)Oc2ccc(-c3ccncc3)cc21` (racemic): the IC50 against Epoxide hydrolase 1 was more than 100 µM; in [1] it was 0.001 µM; in assay [2], 0.007 µM; against Cytochrome P450 2C9, less than 10 µM; against Cytochrome P450 2D6 it was less than 10 µM; against Cytochrome P450 3A4, less than 10 µM. Besides, the IC50 in assay [3] was 4 µM; in [4], 0.2 µM; in assay [5], more than 10 µM.
Regarding `CS(=O)(=O)c1ccc2c(c1)C(=O)CC1(CCN(C(=O)N[C@@H]3CC[C@@H](c4ccccc4)C3)CC1)O2` (racemic), the half-inhibitory concentration (IC50) against Epoxide hydrolase 1 was 10 µM; in [1] it was 0.007 µM; in assay [2] it was 0.021 µM; at Cytochrome P450 2C9 it was less than 10 µM; at Cytochrome P450 2D6 it was more than 10 µM; against Cytochrome P450 3A4 it was more than 10 µM. In addition, the values for the concentration for half-maximal inhibition (IC50) in assay [3], in [4] and in [5] were 18 µM, 3 µM and more than 10 µM, respectively.
In the case of `O=C(N[C@H]1C[C@@H]1c1ccccc1)N1CCC2(CCc3ccccc3O2)CC1` (racemic), the concentration for half-maximal inhibition (IC50) against Epoxide hydrolase 1 is more than 100 µM; in [1], 0.004 µM; in assay [2], 0.011 µM; against Cytochrome P450 2C9 it was less than 10 µM; at Cytochrome P450 2D6, more than 10 µM; against Cytochrome P450 3A4, more than 10 µM. Further, the concentration for half-maximal inhibition (IC50) in assay [3] is 6 µM; in assay [4], 15 µM; in assay [5] it was more than 10 µM. Further, in the assay on Blood, the Activity was determined as 20%.
For `O=C1CC2(CCN(C(=O)NC3CCc4ccccc43)CC2)Oc2ccccc21` (racemic), the IC50 against Epoxide hydrolase 1 is 28 µM; in assay [1], 0.02 µM; in [2], 0.035 µM; in [6], 0.03 µM; on Cytochrome P450 2C9 it was less than 10 µM; against Cytochrome P450 2D6, more than 10 µM. Also, the IC50 against Cytochrome P450 3A4 was more than 10 µM; in assay [3], 6 µM; in [4] it was 6 µM; in assay [5], less than 10 µM.
For the molecule `O=C1CC2(CCN(C(=O)N[C@H]3C[C@@H]3c3ccccc3)CC2)Oc2ccccc21` (relative stereo), the IC50 is more than 100 µM on Epoxide hydrolase 1; 0.011 µM in assay [1]; 0.029 µM in assay [2]; 0.003 µM in [6] (hek293); more than 10 µM at Cytochrome P450 2C9; more than 10 µM against Cytochrome P450 2D6. In addition, the figures for the IC50 (against Cytochrome P450 3A4; in assay [4]; in [5]) were more than 10 µM, 17 µM and more than 10 µM, respectively.
With `O=C(N[C@H]1C[C@@H]1c1ccccc1)N1CCC2(CC1)CC(O)c1ncccc1O2` (relative stereo), the IC50 was more than 100 µM against Epoxide hydrolase 1; 0.008 µM in assay [1]; 0.031 µM in [2]; 0.008 µM in assay [6]; more than 10 µM against Cytochrome P450 2C9; more than 10 µM at Cytochrome P450 2D6. Besides, the 50% inhibitory concentration (IC50) is more than 10 µM against Cytochrome P450 3A4, more than 30 µM in [3], more than 30 µM in assay [4] and more than 10 µM in [5]. This molecule also yielded an Activity in the assay with Blood of 7.3%.
For `O=C1CC2(CCN(C(=O)N[C@H]3C[C@@H]3c3ccccc3)CC2)Oc2ccccc21`, the concentration for half-maximal inhibition (IC50) in [1] was 0.003 µM; in [2], 0.009 µM; in [6], 0.003 µM; at Cytochrome P450 2C9 it was 10 µM; at Cytochrome P450 2D6 it was more than 10 µM; against Cytochrome P450 3A4, more than 10 µM. Also, the IC50 in assay [3] is more than 30 µM; in assay [4] it was 14 µM; in assay [5], more than 10 µM.
For `O=C1CC2(CCN(C(=O)NC3CCc4ccccc4CC3)CC2)Oc2ccccc21`, the IC50 in [1] was found to be 0.008 µM; in [2], 0.028 µM; in [3], 5 µM; in assay [4], 5 µM.
Turning to `O=C(CCc1ccccc1)N1CCC2(CCc3cc(F)ccc3O2)CC1`, the IC50 is more than 100 µM on Epoxide hydrolase 1; 0.007 µM in assay [1]; 0.01 µM in assay [2]; 0.003 µM in assay [6]; less than 10 µM against Cytochrome P450 2C9; less than 10 µM at Cytochrome P450 2D6. For the same molecule, the 50% inhibitory concentration (IC50) against Cytochrome P450 3A4 is more than 10 µM; in assay [3] it was 3 µM; in assay [4], 6 µM; in assay [5], less than 10 µM.
As for `O=C(N[C@H]1C[C@@H]1c1ccccc1)N1CCC2(CCc3cc(F)ccc3O2)CC1` (racemic), the IC50 is more than 100 µM at Epoxide hydrolase 1; 0.003 µM in assay [1]; 0.018 µM in [2]; less than 0.001 µM in [6]; less than 10 µM at Cytochrome P450 2C9; more than 10 µM on Cytochrome P450 2D6. The IC50 on Cytochrome P450 3A4 was more than 10 µM; in [3], 2 µM; in assay [4] it was 7 µM; in [5], more than 10 µM.
Turning to `CS(=O)(=O)c1ccc2c(c1)CCC1(CCCN(C(=O)N[C@H]3C[C@@H]3c3ccccc3)CC1)O2` (relative stereo), the half-maximal inhibitory concentration (IC50) against Epoxide hydrolase 1 is 55 µM; in assay [1], 0.011 µM; in assay [2], 0.049 µM; in assay [6], 0.003 µM; against Cytochrome P450 2C9, more than 10 µM; on Cytochrome P450 2D6 it was more than 10 µM. For the same molecule, the half-maximal inhibitory concentration (IC50) against Cytochrome P450 3A4 is more than 10 µM; in assay [4], 2 µM; in assay [5], more than 10 µM; in assay [7], more than 30 µM.
Take `CS(=O)(=O)c1ccc2c(c1)CCC1(CCN(C(=O)N[C@H]3C[C@@H]3c3ccccc3)CC1)O2`: the half-inhibitory concentration (IC50) at Epoxide hydrolase 1 is 24 µM; in [1] it was 0.003 µM; in assay [2], 0.023 µM; in assay [6], less than 0.001 µM; against Cytochrome P450 2C9, more than 10 µM; at Cytochrome P450 2D6, more than 10 µM. For the same molecule, the half-inhibitory concentration (IC50) against Cytochrome P450 3A4 is more than 10 µM; in assay [3], 28 µM; in assay [4], 15 µM; in [5], more than 10 µM.
On to `O=C(c1ccc(C(F)(F)F)cc1)N1CCC2(CCc3ccccc3O2)CC1`, for which the IC50 at Epoxide hydrolase 1 was 22 µM; in assay [1] it was 0.004 µM; in assay [2], 0.01 µM; in assay [6] it was less than 0.001 µM; at Cytochrome P450 2C9, more than 10 µM; against Cytochrome P450 2D6, more than 10 µM. The half-maximal inhibitory concentration (IC50) on Cytochrome P450 3A4 is more than 10 µM; in [3], 2 µM; in [4], 1 µM; in assay [5] it was more than 10 µM. This molecule returned an Activity in the assay on Blood of 48%.
For `Cn1nccc1Nc1ccc2c(c1)C(=O)CC1(CCN(C(=O)N[C@H]3C[C@@H]3c3ccccc3)CC1)O2` (racemic), the IC50 against Epoxide hydrolase 1 was more than 100 µM; in assay [1], 0.003 µM; in assay [2], 0.013 µM; in [6] it was less than 0.001 µM; on Cytochrome P450 2C9, 10 µM; at Cytochrome P450 2D6 it was more than 10 µM. Also, the 50% inhibitory concentration (IC50) at Cytochrome P450 3A4 is more than 10 µM; in assay [4], 2 µM; in assay [5] it was more than 10 µM; in [7], 26 µM.
